Assay [1] concerns the target HPK1 (Homo sapiens, UniProt Q92918). In words: HPK1 Biochemical Assay (ADP-Glo luminescence; low ATP 10 μM or high ATP 200 μM). A general note: ADP-Glo turns the ADP formed in a reaction into a luminescent signal.
In assay [2] the test system is p-SLP-76 (Ser376) in Jurkat cells. The assay is described as follows: pSLP76 Cellular Assay (AlphaLISA SureFire Ultra p-SLP-76 (Ser376), anti-CD3 activated Jurkat cells). The assay is classed as cell-based. The note with it: Homo sapiens, read-out: Cellular Potency. A digest of the protocol:
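Read-out is AlphaLISA p-SLP-76 (Ser376) signal at 570 nm in Jurkat lysates, with IC50 fitted by 4-parameter logistic. Cells were starved overnight, exposed 1 h at 37 °C to 22 twofold compound dilutions in HBSS, then activated 45 min with anti-CD3 (0.025 mg/ml stock added).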
(Bead proximity is the source of the signal in Alpha formats.)

The mark [3] stands for this setting: HPK1 ADP-Glo assay, high ATP (200 μM ATP, 5 nM HPK1), read-out: Biochemical Potency (high ATP).
The mark [4] stands for this setting: pSLP76 (Ser376) AlphaLISA, anti-CD3 activated Jurkat cells.
Where [5] appears, read: 2 nM HPK1, 10 μM ATP, read-out: Biochemical Potency (low ATP).
[6] abbreviates: Jurkat cells, anti-CD3 stimulation, pSLP76.
The mark [7] stands for this setting: HPK1 ADP-Glo assay, low ATP (10 μM ATP, 2 nM HPK1), read-out: Biochemical Potency (low ATP).

Where two headings read alike, the source gives them in different places.

HPK1, sequence (Q92918 whole entry, species assumed): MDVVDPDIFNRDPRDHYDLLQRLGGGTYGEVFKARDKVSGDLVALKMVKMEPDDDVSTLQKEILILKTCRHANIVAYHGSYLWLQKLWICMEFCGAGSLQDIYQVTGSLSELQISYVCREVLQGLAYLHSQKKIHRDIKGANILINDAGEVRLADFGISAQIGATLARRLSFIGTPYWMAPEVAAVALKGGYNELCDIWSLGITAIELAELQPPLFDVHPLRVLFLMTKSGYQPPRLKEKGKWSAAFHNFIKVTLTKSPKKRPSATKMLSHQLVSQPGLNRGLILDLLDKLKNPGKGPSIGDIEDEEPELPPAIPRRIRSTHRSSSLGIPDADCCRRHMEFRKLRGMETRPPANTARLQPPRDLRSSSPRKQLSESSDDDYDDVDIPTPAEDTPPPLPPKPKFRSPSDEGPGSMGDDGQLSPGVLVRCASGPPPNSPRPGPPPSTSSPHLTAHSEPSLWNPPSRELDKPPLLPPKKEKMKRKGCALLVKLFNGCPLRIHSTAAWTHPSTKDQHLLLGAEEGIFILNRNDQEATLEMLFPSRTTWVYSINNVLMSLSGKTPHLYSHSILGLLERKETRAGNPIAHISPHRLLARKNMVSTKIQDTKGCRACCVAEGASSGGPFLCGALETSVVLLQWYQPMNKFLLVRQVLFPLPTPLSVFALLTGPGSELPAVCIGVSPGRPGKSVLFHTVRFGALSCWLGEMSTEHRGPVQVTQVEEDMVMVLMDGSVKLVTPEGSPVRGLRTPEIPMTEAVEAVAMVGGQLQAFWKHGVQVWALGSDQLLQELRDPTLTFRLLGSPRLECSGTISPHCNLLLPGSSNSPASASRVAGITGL

Consider `CCN1C[C@@H]2C[C@H]1CN2c1nc(C)cc(Nc2cc3nc(-c4cccc(C(=O)N5CC[C@@H](C)C5)c4)sc3cn2)n1` [Example 305, [(R)-3-methyl-1-pyrrolidinyl]{m-[6-(2-{(1S,4S)-5-ethyl-2,5-diazabicyclo[2.2.1]hept-2-yl}-6-methyl-4-pyrimidinylamino)-3-thia-1,5-diaza-2-indenyl]phenyl}methanone], for which the IC50 in assay [1] (setting [3]) and in assay [2] (setting [4]) was below 100 nM throughout.
Regarding `CCN1C[C@@H]2C[C@H]1CN2c1nc(C)cc(Nc2cc3nc(-c4cccc(C(=O)N[C@H](C)c5ccccc5)c4)sc3cn2)n1` [Example 516], the values for the IC50 in assay [1] (setting [3]) and in assay [2] (setting [4]) were below 100 nM and 100 to 1000 nM, respectively.
For the compound `CCN1C[C@@H]2C[C@H]1CN2c1nc(C)cc(Nc2cc3nc(-c4cccc(C(=O)N5CC[C@H](C)C5)c4)sc3cn2)n1` [Example 533], the IC50 in assay [1] (setting [3]) and in assay [2] (setting [4]) was below 100 nM each time.
With `Cc1cc(Nc2cc3nc(-c4cccc(C(=O)N(C)C)c4)sc3cn2)nc(N2C[C@@H]3C[C@H]2CN3CCN(C)S(C)(=O)=O)n1` [Example 498], the IC50 was in the range of 100 to 1000 nM in assay [1] (setting [3]) and 1000 to 5000 nM in assay [2] (setting [4]).
Consider `OCCN1C[C@@H]2C[C@H]1CN2c1nccc(Nc2cc3nc(-c4cnn(CC5CC5)c4)sc3cn2)n1` [Example 357], for which the IC50 in assay [1] (setting [3]) was below 100 nM; in assay [2] (setting [4]) it was 100 to 1000 nM.
With `COc1cccnc1-c1nc2cc(Nc3cc(C)nc(N4C[C@@H]5C[C@H]4CN5C)n3)ncc2s1` [Example 469], the IC50 is below 100 nM in assay [1] (setting [3]) and 100 to 1000 nM in assay [2] (setting [4]).
Consider `CN(C)C(=O)c1cccc(-c2nc3cc(Nc4cccc(N5C[C@@H]6C[C@H]5CN6)n4)ncc3s2)c1` [Example 140, 3-[6-({6-[(1S,4S)-2,5-Diazabicyclo[2.2.1]heptan-2-yl]pyridin-2-yl}amino)-[1,3]thiazolo[5,4-c]pyridin-2-yl]-N,N-dimethylbenzamide], for which the results for the IC50 in assay [1] (setting [5]) and in assay [2] (setting [6]) were below 100 nM and 100 to 1000 nM, respectively.
Turning to `Cc1cc(Nc2cc3nc(-c4cccc(C(=O)N(C)[C@H]5CCOC5)c4)sc3cn2)nc(N2C[C@@H]3C[C@H]2CN3CCO)n1` [Example 555], the IC50 in assay [1] (setting [3]) and in assay [2] (setting [4]) was below 100 nM each time.
As for `CN(C)Cc1nc(Nc2cc3nc(-c4ccncc4F)sc3cn2)ccc1N1CCOCC1` [Example 4, 6-[(Dimethylamino)methyl]-N-[2-(3-fluoropyridin-4-yl)-[1,3]thiazolo[5,4-c]pyridin-6-yl]-5-(morpholin-4-yl)pyridin-2-amine], the IC50 in assay [1] (setting [5]) is below 100 nM; in assay [2] (setting [6]), 100 to 1000 nM.
As to `CCN1C[C@@H]2C[C@H]1CN2c1nc(C)cc(Nc2cc3nc(-c4cncc(N5CCOC[C@H]5C)c4)sc3cn2)n1` [Example 297, 2-[(1S,4S)-5-ethyl-2,5-diazabicyclo[2.2.1]heptan-2-yl]-6-methyl-N-(2-{5-[(3R)-3-methylmorpholin-4-yl]pyridin-3-yl}-[1,3]thiazolo[5,4-c]pyridin-6-yl)pyrimidin-4-amine], the IC50 in assay [1] (setting [3]) is below 100 nM; in assay [2] (setting [4]) it was 100 to 1000 nM.
With `CCN(CC)C(=O)c1cccc(-c2nc3cc(Nc4cc(C)nc(N5C[C@@H]6C[C@H]5CN6CCO)n4)ncc3s2)c1` [Example 504], the IC50 in assay [1] (setting [3]) and in assay [2] (setting [4]) was below 100 nM in each case.
For the compound `CCN1C[C@@H]2C[C@H]1CN2c1nc(C)cc(Nc2cc3nc(-c4cc(C)cc(N5C(=O)CC[C@H]5C)c4)sc3cn2)n1` [Example 466], the IC50 is below 100 nM in assay [1] (setting [3]) and 100 to 1000 nM in assay [2] (setting [4]).
As to `Cc1cccnc1-c1nc2cc(Nc3ccc(C4CCOCC4)c(N4C[C@@H]5C[C@H]4CN5C)n3)ncc2s1` [Example 433], the IC50 in assay [1] (setting [7]) and in assay [2] (setting [4]) was below 100 nM in each case.
As to `Cc1ccc(Nc2cc3nc(-c4ccnn4C)sc3cn2)nc1O[C@H]1CCNC1` [Example 182, 5-Methyl-N-[2-(1-methyl-1H-pyrazol-5-yl)-[1,3]thiazolo[5,4-c]pyridin-6-yl]-6-[(3S)-pyrrolidin-3-yloxy]pyridin-2-amine], the IC50 in assay [1] (setting [5]) was below 100 nM; in assay [2] (setting [6]), 100 to 1000 nM.
On to `CCN1C[C@@H]2C[C@H]1CN2c1nc(C)cc(Nc2cc3nc(-c4cccc(CN5CCOC5=O)c4)sc3cn2)n1` [Example 310, (2-{(1S,4S)-5-ethyl-2,5-diazabicyclo[2.2.1]hept-2-yl}-6-methyl-4-pyrimidinyl)(2-{m-[(2-oxo-1,3-oxazolidin-3-yl)methyl]phenyl}-3-thia-1,5-diaza-6-indenyl)amine], for which the results for the IC50 in assay [1] (setting [3]) and in assay [2] (setting [4]) were below 100 nM and 100 to 1000 nM, respectively.
Take `CC(C)c1cccnc1-c1nc2cc(Nc3cccc(N4C[C@@H]5C[C@H]4CN5C)n3)ncc2s1` [Example 93, 6-[(1S,4S)-5-Methyl-2,5-diazabicyclo[2.2.1]heptan-2-yl]-N-{2-[3-(propan-2-yl)pyridin-2-yl]-[1,3]thiazolo[5,4-c]pyridin-6-yl}pyridin-2-amine]: the IC50 in assay [1] (setting [5]) is below 100 nM; in assay [2] (setting [6]), 100 to 1000 nM.
On to `Cc1cccnc1-c1nc2cc(Nc3ccc4c(n3)[C@](C)(N)CCC4)ncc2s1` [Example 316, (8R)-8-methyl-N2-[2-(3-methylpyridin-2-yl)-[1,3]thiazolo[5,4-c]pyridin-6-yl]-5,6,7,8-tetrahydroquinoline-2,8-diamine], for which the IC50 in assay [1] (setting [7]) and in assay [2] (setting [4]) was 1000 to 5000 nM each time.
As for `CCN1C[C@@H]2C[C@H]1CN2c1nc(C)cc(Nc2cc3nc(-c4cccc(N5CCC(F)CC5)c4)sc3cn2)n1` [Example 338], the IC50 in assay [1] (setting [3]) is below 100 nM; in assay [2] (setting [4]) it was 1000 to 5000 nM.
Taken in the same sequence, the figures for `Cc1cc(Nc2cc3nc(-c4cnn(CS(C)(=O)=O)c4)sc3cn2)nc(N2C[C@@H]3C[C@H]2CN3C)n1` [Example 378] were below 100 nM and 100 to 1000 nM.
On to `Cc1c(-c2nc3cc(Nc4cccc(N5C[C@@H]6C[C@H]5CN6C)n4)ncc3s2)cnc2c1NCCO2` [Example 134, N-(2-{8-Methyl-1H,2H,3H-pyrido[2,3-b][1,4]oxazin-7-yl}-[1,3]thiazolo[5,4-c]pyridin-6-yl)-6-[(1S,4S)-5-methyl-2,5-diazabicyclo[2.2.1]heptan-2-yl]pyridin-2-amine], for which the IC50 in assay [1] (setting [5]) was below 100 nM; in assay [2] (setting [6]), 1000 to 5000 nM.
For `Cc1cc(Nc2cc3nc(-c4ccnc(N5C[C@H]6COC[C@H]6C5)c4)sc3cn2)nc(N2C[C@@H]3C[C@H]2CN3C)n1` [Example 457], the results for the IC50 in assay [1] (setting [3]) and in assay [2] (setting [4]) were below 100 nM and 100 to 1000 nM, respectively.
On to `CCN1C[C@@H]2C[C@H]1CN2c1nc(C)cc(Nc2cc3nc(-c4cccc(C(=O)N5CCC[C@@H]5C)c4)sc3cn2)n1` [Example 526], for which the IC50 in assay [1] (setting [3]) and in assay [2] (setting [4]) was below 100 nM in each case.
In the case of `Cc1ccc(Nc2cc3nc(-c4ncccc4C)sc3cn2)nc1CN1CCCC1` [Example 41, 5-Methyl-N-[2-(3-methylpyridin-2-yl)-[1,3]thiazolo[5,4-c]pyridin-6-yl]-6-[(pyrrolidin-1-yl)methyl]pyridin-2-amine], the figures for the IC50 in assay [1] (setting [5]) and in assay [2] (setting [6]) were below 100 nM and 1000 to 5000 nM, respectively.
`Cc1cc(Nc2cc3nc(-c4cccc(N5CCOCC5)c4)sc3cn2)nc(N2C[C@@H]3C[C@H]2CN3CCO)n1` [Example 349]: the IC50 was below 100 nM in assay [1] (setting [3]) and 100 to 1000 nM in assay [2] (setting [4]).
`c1cnn(-c2nc3cc(Nc4cncc(N5C[C@@H]6C[C@H]5CN6)n4)ncc3s2)c1` [Example 430]: the IC50 in assay [1] (setting [3]) is below 100 nM; in assay [1] (setting [7]), below 100 nM; in assay [2] (setting [4]), 100 to 1000 nM.
Regarding `CN(C)Cc1nc(Nc2cc3nc(-c4c(F)cccc4F)sc3cn2)ccc1C1CCOC1` (stereo not drawn) [Example 257, N-[2-(2,6-Difluorophenyl)-[1,3]thiazolo[5,4-c]pyridin-6-yl]-6-[(dimethylamino)methyl]-5-(oxolan-3-yl)pyridin-2-amine], the IC50 in assay [1] (setting [5]) is below 100 nM; in assay [2] (setting [6]), 1000 to 5000 nM.
Take `Cc1cccnc1-c1nc2cc(Nc3ccc(C4CCOCC4)c(N4C[C@@H]5C[C@H]4CN5)n3)ncc2s1` [Example 432]: the IC50 in assay [1] (setting [7]) and in assay [2] (setting [4]) was below 100 nM in each case.
As for `Cc1cc(Nc2cc3nc(-c4cc(C(=O)N(C)C)cc(C5CC5)c4)sc3cn2)nc(N2C[C@@H]3C[C@H]2CN3CCO)n1` [Example 552], the IC50 in assay [1] (setting [3]) and in assay [2] (setting [4]) was below 100 nM each time.
Turning to `Cc1cccc(F)c1-c1nc2cc(Nc3ccc(C4CCOC4)c(CN(C)C)n3)ncc2s1` (stereo not drawn) [Example 255, 6-[(Dimethylamino)methyl]-N-[2-(2-fluoro-6-methylphenyl)-[1,3]thiazolo[5,4-c]pyridin-6-yl]-5-(oxolan-3-yl)pyridin-2-amine], the IC50 in assay [1] (setting [5]) is below 100 nM; in assay [2] (setting [6]), 100 to 1000 nM.
Turning to `CN1C[C@@H]2C[C@H]1CN2c1nccc(Nc2cc3nc(-c4ccnc(C(C)(O)C(F)(F)F)c4)sc3cn2)n1` (stereo partly drawn) [Example 408], the IC50 was below 100 nM in assay [1] (setting [3]), below 100 nM in assay [1] (setting [7]) and 100 to 1000 nM in assay [2] (setting [4]).
With `Cc1cc(Nc2cc3nc(-c4cccc(C(=O)N5CCC[C@@H]5C)c4)sc3cn2)nc(N2C[C@@H]3C[C@H]2CN3CCO)n1` [Example 548], the IC50 in assay [1] (setting [3]) and in assay [2] (setting [4]) was below 100 nM in each case.
For `CCN1C[C@@H]2C[C@H]1CN2c1nc(C)cc(Nc2cc3nc(-c4cccc(S(=O)(=O)C5CC5)c4)sc3cn2)n1` [Example 340], the IC50 in assay [1] (setting [3]) and in assay [2] (setting [4]) was below 100 nM in each case.

(Values after patent US12649751B2 (Arcus Biosciences, Inc., priority 2022, dated 2026).)
